Laboratory results taken from PubChem BioAssay (NCI).
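Compound exposure: 48 hours, 5 concentrations, 96-well plates. Abbreviation: GI50, concentration required for 50% inhibition of growth. The concentration for full growth arrest is given as TGI.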

What was measured:
Assay in all cases: DTP human tumour cell line panel, 48 h
[1] = tested on: NCI-H460 lung
[2] = tested on: SN12C renal
[3] = tested on: SK-MEL-2 melanoma
[4] = tested on: M14 melanoma
[5] = tested on: SNB-19 CNS
[6] = tested on: HL-60(TB) leukemia
[7] = tested on: HT29 colon
[8] = tested on: SR leukemia
[9] = tested on: OVCAR-5 ovarian
[10] = tested on: MDA-MB-231 breast

Structure (SMILES)	TGI [1] [µM]	TGI [2] [µM]	TGI [3] [µM]	TGI [4] [µM]	TGI [5] [µM]	TGI [6] [µM]	TGI [7] [µM]	TGI [8] [µM]	TGI [9] [µM]	GI50 [1] [µM]	GI50 [2] [µM]	GI50 [3] [µM]	GI50 [4] [µM]	GI50 [5] [µM]	GI50 [10] [µM]	TGI [10] [µM]	GI50 [6] [µM]	GI50 [7] [µM]	GI50 [9] [µM]
O=C1CSC(/C(=N/Nc2ccccc2)c2nc3ccccc3[nH]2)=N1	> 100	> 100	> 100	> 100	> 100	> 100	> 100	31.1	> 100										
c1ccc(C2Nc3ccccc3C3OCCCC23)cc1 (configuration not stated)		> 100	82.2		> 100	51.1			> 100										
CSC(C1c2ccccc2N(c2ccc(C)cc2)c2[nH]c(=O)n(C)c(=O)c21)S(=O)(=O)c1ccc(C)cc1 (configuration not stated)	> 100	> 100	> 100	> 100	> 100	> 100	> 100		> 100										
C[C@H](O)C(=O)N1CCC(CCn2c(Sc3cc4c(cc3Br)OCO4)nc3c(N)ncnc32)CC1	> 100	> 100	> 100	> 100	> 100	14.5	> 100		> 100	0.432	0.725	4.63	0.965	3.7	1.46	31.9	0.409	0.432	2.74
CCCCCCCCCCCC(=O)OCC1OC(OC)C(NC(=O)N(CCCl)N=O)C(O)C1O (configuration not stated)	20.5	29.5	54.5	24.5	> 100		31.2	18.6	57.7										
COc1cc(NC(C)CCCN)c2nccc(C)c2c1 (configuration not stated)	54.7	> 100	37.9	33.7	> 100	21.1	> 100	53.1	> 100										
CN(CCC#N)c1ccc(/C=C(\C#N)c2ccc(Br)cc2)cc1					> 100	> 100	> 100		> 100					> 100	4.72	> 100	4.43	3.16	> 100
